In patent US6596497B1, “Screening of antiviral compounds targeted to the HIV-1 gp41 core structure” (New York Blood Center, Inc., priority 1999, dated 2003):
Values after ≈ are worked out from the molar mass of the structure shown. Like-named read-outs stand apart in the source and are kept apart here.

Experiments:
[1] = target: T1, N-36/C-34 complex (HIV-1 gp41 core) (Human immunodeficiency virus type 1 group M subtype B, UniProt P04578); assay: biochemical; assay type: binding; conditions: for Inhibitory activity on complex formation by N-36 and C-34 (in words): no concentration stated; for Inhibition of NC-1 detectable complex formation by N-36 and C-34 (in words): compounds at 10 μg/ml, FIG. 13
T1 construct: Peptides derived from the NHR and CHR regions of gp41, designated N- and C-peptides; made in house; host or cells: chemical synthesis (solid-phase FMOC)
T1 sequence (P04578 546-581, one chain of several): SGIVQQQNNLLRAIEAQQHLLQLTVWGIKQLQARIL
Experimental: For detection of peptide complexes, a direct and a sandwich ELISA were used. In the direct ELISA, the N- and C-peptides were mixed at equimolar concentration in PBS and diluted in coating buffer. Then, the peptide complexes were directly coated onto the wells of microplate. In the sandwich ELISA, the plate was coated with IgG (10 μg/ml) purified from rabbit antisera directed against N36(L6)C34, followed by the addition of the peptide complexes formed by mixing N- and C-peptides in PBS in equimolar concentrations. To screen for antiviral agents, compounds were pre-incubated with N-peptides at 37° C. for 30 minutes before mixing with the C-peptides. The binding of the peptide complexes to the antibodies was then detected as described above.
The percentage of inhibition by the compounds of the binding of NC-1 to the peptide complexes was calculated as described in Jiang, S., K. Lin, and A. R. Neurath, 1991, “Enhancement of human immunodeficiency virus type-1 (HIV-1) infection by antisera to peptides from the envelope glycoproteins gp120/gp41”, J. Exp. Med., 174, 1557-1563.
A sandwich ELISA was established to screen for compounds that interfere with the formation of the N-36/C-34 complex. N-36 (2 μM) was preincubated with compounds at graded concentrations at 37° C. for 30 minutes, followed by the addition of C-34 (2 μM). After incubation at 37° C. for 30 minutes, the mixture was added to wells of a 96-well polystyrene plate (Immulon I, Dynatech Laboratories, Inc., Chantilly, Va.) which were precoated with IgG (10 μg/ml) purified from rabbit antisera directed against N36(L6)C34. […] Absorbance at 450 nm (A450) was read using an ELISA reader (Dynatech Laboratories, Inc., Chantilly, Va.). The percentage of inhibition by the compounds of the binding of NC-1 to the peptide complexes was calculated as described in Jiang S., K. Lin, and A. R. Neurath, 1991, “Enhancement of human immunodeficiency virus type-1 (HIV-1) infection by antisera to peptides from the envelope glycoproteins gp120/gp41”, J. Exp. Med., 174, 1557-1563. The concentration for 50% inhibition (IC50) was calculated using a computer program, designated Calcusyn (Chou, T.-C., 1991, “The median-effect principle and the combination index for quantitation of synergism and antagonism. In Synergism and Antagonism in Chemotherapy”, T.-C. Chou and D. C. Rideout, editors, Academic Press, San Diego, 61-102).

[2] = system: H9/HIV-1IIIB cells and MT-2 cells; assay: cells; assay type: cell-based; conditions: for IC50: Human immunodeficiency virus 1, MT2, 2 h, read-out: IC50 ± SD Cell fusion; for Inhibitory activity on HIV-1-mediated cell fusion (in words): no concentration stated; for Inhibition of HIV-1-mediated cell fusion (in words): compounds at 10 μg/ml, FIG. 13
Experimental: A dye transfer assay was used for detection of HIV-1-mediated cell fusion as described in Jiang et al., Nature, 365, 113 (1993). H9/HIV-1IIIB cells were labeled with a fluorescent reagent, 2′,7′-bis-(2-carboxyethyl)-5-and-6-carboxyfluorescein acetoxyethyl ester (BCECF-AM), (Molecular Probes, Inc., Eugene, Oreg.) and incubated with MT-2 cells (ratio=1:10) in a 96-well plate at 37° C. for 2 hours in the presence or absence of peptides or compounds tested. The fused and unfused BCECF-labeled HIV-1 infected cells were counted under an inverted fluorescence microscope (Zeiss, Germany) with an eyepiece micrometer discs. The percentage of inhibition of cell fusion was calculated as described in Jiang et al., 1993, Nature, 365, 113.
A dye transfer assay was used for detection of HIV-1 mediated cell fusion as described in Jiang, S., K. Lin, N. Strick, and A. R. Neurath, 1993, Inhibition of HIV-1 infection by a fusion domain binding peptide from HIV-1 envelope glycoprotein gp41, Biochem. Biophys. Res. Commun., 195, 533-538.
H9/HIV-1IIIB cells were labeled with a fluorescent reagent, 2′,7′-bis-(2-carboxyethyl)-5-and-6-carboxyfluorescein acetoxyethyl ester (BCECF-AM) (Molecular Probes, Inc., Eugene, Oreg.) and then incubated with MT-2 cells (ratio=1:10) in 96-well plates at 37° C. for 2 hours in the presence or absence of the compounds tested. The fused and unfused BCECF-labeled HIV-1 infected cells were counted under an inverted fluorescence microscope (Zeiss, Germany) with an eyepiece micrometer disc. The percentage of inhibition of cell fusion and the IC50 values were calculated as described in Jiang et al., (1993), Biochem. Biophys. Res. Commun., 195, 533-538.

HIV-1IIIB = assay: HIV-1-mediated cytopathic effect (CPE), XTT; assay type: cell-based; conditions: for selectivity ratio at 6 days: human, read-out: Selective Index (S.I.) = CC50/IC50 for CPE
Experimental: The inhibitory activity of the compounds was determined by a calorimetric method based on protection of cells against HIV-1-mediated CPE, as described in Jiang et al., (1991), J. Exp. Med., 174, 1557-1563. 1×10^4 MT-2 cells in 96-well plates were infected with diluted HIV-1IIIB in 200 μl RPMI 1640 medium containing 10% FBS in the presence of compounds at graded concentrations. After 1 hour, 24 hours and 4 days, half of the culture media were changed. On the sixth day post infection, an indicator, XTT tetrazolium dye (1 mg/ml; 50 μl/well; PolySciences, Inc., Warrington, Pa.), was added to the cells. After 4 hours, the soluble intracellular formazan was determined calorimetrically at 450 nm. The percent of inhibition of CPE and the IC50 values were calculated as described above.

[3] = In vitro cytotoxicity, XTT; assay type: cell-based; conditions: human
Experimental: The in vitro cytotoxicity for MT-2 cells of the compounds was determined in 96-well plates using the XTT dye to measure cell viability in the absence of virus. Ten μl of 5% TRITON X-100 were added to the wells corresponding to positive controls (“P”) and 10 μl medium was added to wells corresponding to negative controls (“N”). The percent cytotoxicity was calculated using the following formula: % cytotoxicity=[(E−N)/(P−N)]×100%, wherein “E” represents experimental data in the presence of compounds. The concentration corresponding to 50% cytotoxicity (CC50) for MT-2 cells was calculated using the Calcusyn computer program. The selectivity index (S.I.=CC50/IC50) for each compound was calculated.

[4] = Human immunodeficiency virus 1, MT2, read-out: IC50 ± SD CPE
[5] = 50% cytotoxic concentration, MT-2 cells, no virus, read-out: CC50 ± SD
[6] = Human immunodeficiency virus 1, MT2, MT-2 cells, sixth day post infection, read-out: IC50 ± SD CPE

Compound	IC50 [1] [µM]	Inhibitory activity on complex formation by N-36 and C-34 (in words) [1]	IC50 [2] [µg/mL]	Inhibitory activity on HIV-1-mediated cell fusion (in words) [2]	IC50 (HIV-1IIIB; [4]) [µg/mL]	selectivity ratio at 6 days (HIV-1IIIB; MT-2 cells)	Inhibitory activity on HIV-1-mediated CPE (in words) (HIV-1IIIB; no concentration stated)	CC50 [3, 5] [µg/mL]	IC50 (HIV-1IIIB; [6]) [µg/mL]	CC50 [3] [µg/mL]	Inhibition of NC-1 detectable complex formation by N-36 and C-34 (in words) [1]	Inhibition of HIV-1-mediated cell fusion (in words) [2]
Cc1ccc(N=Nc2c(S(=O)(=O)O)cc3cc(S(=O)(=O)O)cc(Nc4nc(Cl)nc(Nc5ccccc5)n4)c3c2O)c(S(=O)(=O)O)c1 [ADS-J2, 5-[(4-chloro-6-phenylamino-1,3,5-triazine-2-yl)-amino]-4-hydroxy-3-[(4-methyl-6-sulfophenyl)azo]-2,7-naphthalene disulfonic acid]	4.4	promising inhibitory activity	21.9 ± 1.38 (≈ 30.3 µM)	promising inhibitory activity	30.8 ± 6.74 (≈ 42.6 µM)	9.43	promising inhibitory activity	290 ± 12.4 (≈ 402 µM)	–	–	–	–
C=CC1C[N@@]2CCC1C[C@@H]2C(OC(=O)c1ccc(OC)cc1)c1ccnc2ccccc12 (stereo partly shown) [ADS-J4]	> 233	–	> 100	–	–	≤ 1	–	–	> 100	74.1 ± 0.76 (≈ 173 µM)	–	–
CC(c1nc2ccc(Cl)cc2c(=O)n1Cc1ccccc1)N(C(=O)c1ccc([N+](=O)[O-])cc1)c1ccc(F)cc1 (stereo not shown) [ADS-J5]	> 180	–	> 100	–	> 100	≤ 1	–	30.2 ± 4.84 (≈ 54.2 µM)	–	–	–	–
C/C(=N/OC(=O)NS(=O)(=O)c1ccc(C)cc1)c1cc2ccccc2oc1=O [ADS-J6]	> 250	–	> 100	–	> 100	≤ 1	–	286 ± 19.3 (≈ 714 µM)	–	–	–	–
CCC1C[N@@]2CCC1C[C@@H]2C(OC(=O)c1ccccc1Cl)c1ccnc2ccc(OC)cc12 (stereo partly shown) [ADS-J7]	> 215	–	59.8 ± 8.69 (≈ 129 µM)	–	–	≤ 1	–	–	> 100	41.3 ± 2.38 (≈ 88.9 µM)	–	–
O=C(Nc1cc([N+](=O)[O-])ccc1-c1ccc([N+](=O)[O-])cc1)c1ccc([N+](=O)[O-])cc1Cl [ADS-J9]	> 226	–	> 100	–	> 100	≤ 1	–	47.2 ± 5.48 (≈ 107 µM)	–	–	–	–
O=C(Nc1ccc(Cl)c(Cl)c1)O/N=C(/c1ccccc1)c1ccc(-c2ccccc2)cc1 [ADS-J10]	> 217	–	> 100	–	> 100	≤ 1	–	74.7 ± 6.04 (≈ 162 µM)	–	–	–	–
Cc1ccc(N(C(=O)Nc2ccccc2)C(C)c2nc3ccccc3c(=O)[nH]2)c(C)c1 (stereo not shown) [ADS-J11]	> 242	–	> 100	–	> 100	≤ 1	–	40.8 ± 1.67 (≈ 98.8 µM)	–	–	–	–
Cc1ccc(N(C(=O)Nc2cccc(Cl)c2)C(C)c2nc3ccccc3c(=O)[nH]2)c(C)c1 (stereo not shown) [ADS-J12]	> 224	–	> 100	–	> 100	≤ 1	–	54 ± 8.14 (≈ 121 µM)	–	–	–	–
Cc1ccc(N(C(=O)Nc2ccc(Cl)c(Cl)c2)C(C)c2nc3ccccc3c(=O)[nH]2)c(C)c1 (stereo not shown) [ADS-J13, N′-(3,4-dichlorophenyl)-N-[1-(4-oxo-3,4-dihydroquinazolin-2-yl)ethyl]-N-2,4-dimethyl phenylurea]	> 208	–	> 100	does not inhibit	> 100	≤ 1	–	39.2 ± 7.6 (≈ 81.5 µM)	–	–	–	–
CC(Nc1ccccc1Cl)c1nc2ccccc2c(=O)n1Cc1ccccc1 (stereo not shown) [ADS-J14]	> 256	–	> 100	–	> 100	≤ 1	–	86.8 ± 5.79 (≈ 223 µM)	–	–	–	–
COC(=O)c1cc(C(=O)OC)cc(N(C(=O)Nc2ccc(Cl)c(Cl)c2)C(C)c2nc3ccccc3c(=O)n2Cc2ccccc2)c1 (stereo not shown) [ADS-J15]	> 152	–	> 100	–	> 100	≤ 1	–	20.9 ± 0.67 (≈ 31.8 µM)	–	–	–	–
O=P(CCP(c1ccccc1)c1ccccc1)(c1ccccc1)c1ccccc1 [ADS-J16]	> 241	–	52.3 ± 2.85 (≈ 126 µM)	–	> 100	≤ 1	–	28.9 ± 5.97 (≈ 69.7 µM)	–	–	–	–
O=C(O)c1ccc(-c2c3nc(c(-c4ccc(C(=O)O)cc4)c4ccc([nH]4)c(-c4ccc(C(=O)O)cc4)c4nc(c(-c5ccc(C(=O)O)cc5)c5ccc2[nH]5)C=C4)C=C3)cc1 [MTCPP, meso-tetra(4-carboxyphenyl)porphyrin, reference compound]	–	some inhibitory activity	–	–	–	–	–	–	–	–	partially inhibited	partially inhibited
O=S(=O)(O)c1ccc(-c2c3nc(c(-c4ccc(S(=O)(=O)O)cc4)c4ccc([nH]4)c(-c4ccc(S(=O)(=O)O)cc4)c4nc(c(-c5ccc(S(=O)(=O)O)cc5)c5ccc2[nH]5)C=C4)C=C3)cc1 [MTSPP, meso-tetra(4-sulphonatophenyl)porphyrin, reference compound]	–	some inhibitory activity	–	–	–	–	–	–	–	–	partially inhibited	partially inhibited
C=Cc1c(C)c2cc3nc(c(CC(=O)O)c4[nH]c(cc5nc(cc1[nH]2)C(C)=C5CC)c(C)c4C(=O)O)[C@@H](CCC(=O)O)[C@@H]3C [chlorin e6, reference compound]	–	some inhibitory activity	–	–	–	–	–	–	–	–	partially inhibited	partially inhibited
[Tyr5,12, Lys7]-polyphemusin II [Compound T-22, reference compound]	–	do not inhibit the complex formation	–	–	–	–	–	–	–	–	–	–
